Assay results taken from patent US9993497B2, “Use of alginate compositions in preventing or reducing liver damage caused by a hepatotoxic agent” (HADASIT MEDICAL RESEARCH SERVICES AND DEVELOPMENT LTD., priority 2012, dated 2018).

Tests used:
[1] = test system: paracetamol intoxicated mice; assay: Nitrotyrosine staining of liver tissue (oxidative stress); type: in vivo, mice (C57BL/6); settings: 4 mg paracetamol alone
Method: (§1) Briefly, necrosis staining was as follows: sections were first de-paraffinized and then were incubated with rabbit polyclonal IgG. Sections were then incubated with secondary antibody using the MACH 3 Rabbit HRP Polymer Detection and then dehydrated, cleared and mounted in synthetic resin. For color detection, DAB (3,3′-diaminobenzidine) was applied, followed by counterstaining Quantification of necrosis was carried out by the Ariol SL-50 system (Applied Imaging) on microscope slides. Nitrotyrosine and Ki-67 immunostaining staining was performed similarly, using a rabbit polyclonal anti-nitrotyrosine antibody (Abcam) or an anti-Ki-67 antibody (DAKO).

[2] = test system: paracetamol intoxicated mice; assay: Ki-67 staining of liver tissue (cell proliferation); type: in vivo, mice (C57BL/6); settings: 4 mg paracetamol alone
Method: as §1

In the case of `CC(=O)Nc1ccc(O)cc1` [paracetamol, N-acetyl-p-aminophenol], the “Nitrotyrosine staining in liver” value [1] is reported as “extensive centrilobular nitrotyrosine staining” and the “Cell proliferation in the liver (Ki-67 staining)” value [2] is reported as “widespread cell proliferation in the liver”.
